Results from paper PMC6017931, “A Novel Class of Schistosoma mansoni Histone Deacetylase 8 (HDAC8) Inhibitors Identified by Structure-Based Virtual Screening and In Vitro Testing” (Molecules : A Journal of Synthetic Chemistry and Natural …, 2018).

Legend:
smHDAC8 = biological target: T1, smHDAC8 (Schistosoma mansoni, UniProt A5H660); experiment: smHDAC8 in vitro inhibition assay; type: biochemical; details: for IC50: mean ± S.E., Fluor de Lys-HDAC8 substrate 50 µM, 90 min at 37 °C
T1 construct: made in house; host or cells: E. coli
T1 sequence (A5H660 1-440): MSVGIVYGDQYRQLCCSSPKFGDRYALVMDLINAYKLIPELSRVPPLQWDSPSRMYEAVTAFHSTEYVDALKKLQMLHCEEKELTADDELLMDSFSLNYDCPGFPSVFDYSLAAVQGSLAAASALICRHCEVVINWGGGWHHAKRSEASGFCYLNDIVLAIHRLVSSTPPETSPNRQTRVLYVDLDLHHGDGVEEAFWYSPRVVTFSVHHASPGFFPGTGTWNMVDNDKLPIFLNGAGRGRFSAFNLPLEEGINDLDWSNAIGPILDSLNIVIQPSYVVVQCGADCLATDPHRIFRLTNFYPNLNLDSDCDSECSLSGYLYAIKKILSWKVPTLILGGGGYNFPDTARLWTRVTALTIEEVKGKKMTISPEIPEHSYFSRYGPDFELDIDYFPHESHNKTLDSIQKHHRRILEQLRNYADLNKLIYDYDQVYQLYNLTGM
Method: The biological assay was carried out using purified smHDAC8 protein and the small molecule substrate Z(Tfa)Lys-AMC (ZMTFAL) as previously reported. To assess the selectivity, the selected compounds were further tested against the human orthologue hsHDAC8 as well as the major human HDAC isoforms (HDAC1 and -6) using an established in vitro assay.
Recombinant human HDAC1 and HDAC6 were purchased from BPS Bioscience. Recombinant human HDAC8 was expressed and purified as previously described. Recombinant smHDAC8 enzyme was produced in E. coli cells and purified by a method previously described by us. Inhibition assays of smHDAC8 and human HDACs were performed as already described in previous publications. Briefly, the commercial Fluor de Lys kit (BML-KI178) was used for testing inhibition of smHDAC8 and hsHDAC8. Test compounds, Fluor de Lys-HDAC8 substrate (50 µM) and enzyme were incubated for 90 min at 37 °C with subsequent addition of 50 μL Developer II (BML-KI176) and further incubation for 45 min at 30 °C. Fluorescence was measured in a plate reader (BMG Polarstar) with excitation at λ = 390 nm and emission at λ = 460 nm. Inhibition tests of human HDAC1 and 6 were conducted using ZMAL (Cbz-(Ac)Lys-AMC) as substrate and trypsin as a developer. […] Trichostatin A (2 µM) was used in both assays to stop the reaction. Fluorescence was measured similarly as mentioned above. IC50 values were determined with OriginPro (version 9.0.0, Northampton, MA, USA). IC50 Values in Table 1 are given as mean ± S.E.

hsHDAC8 = biological target: T2, hsHDAC8 (Homo sapiens, UniProt Q9BY41); experiment: hsHDAC8 in vitro inhibition assay; type: biochemical; details: mean ± S.E.; Fluor de Lys-HDAC8 substrate 50 µM, 90 min at 37 °C
T2 construct: made in house
T2 sequence (Q9BY41 1-377): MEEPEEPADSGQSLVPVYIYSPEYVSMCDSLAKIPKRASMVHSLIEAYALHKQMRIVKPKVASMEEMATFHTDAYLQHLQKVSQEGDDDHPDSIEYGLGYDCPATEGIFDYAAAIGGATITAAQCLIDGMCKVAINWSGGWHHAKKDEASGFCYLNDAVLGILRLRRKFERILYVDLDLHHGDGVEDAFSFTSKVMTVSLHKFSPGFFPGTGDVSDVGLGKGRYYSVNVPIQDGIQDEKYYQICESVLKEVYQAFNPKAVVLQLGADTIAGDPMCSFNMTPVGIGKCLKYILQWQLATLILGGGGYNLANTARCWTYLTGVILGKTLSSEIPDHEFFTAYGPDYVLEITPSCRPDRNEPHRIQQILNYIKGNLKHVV
Method: (§1) The biological assay was carried out using purified smHDAC8 protein and the small molecule substrate Z(Tfa)Lys-AMC (ZMTFAL) as previously reported. To assess the selectivity, the selected compounds were further tested against the human orthologue hsHDAC8 as well as the major human HDAC isoforms (HDAC1 and -6) using an established in vitro assay. […] Recombinant human HDAC1 and HDAC6 were purchased from BPS Bioscience. Recombinant human HDAC8 was expressed and purified as previously described. Recombinant smHDAC8 enzyme was produced in E. coli cells and purified by a method previously described by us. Inhibition assays of smHDAC8 and human HDACs were performed as already described in previous publications. Briefly, the commercial Fluor de Lys kit (BML-KI178) was used for testing inhibition of smHDAC8 and hsHDAC8. Test compounds, Fluor de Lys-HDAC8 substrate (50 µM) and enzyme were incubated for 90 min at 37 °C with subsequent addition of 50 μL Developer II (BML-KI176) and further incubation for 45 min at 30 °C. Fluorescence was measured in a plate reader (BMG Polarstar) with excitation at λ = 390 nm and emission at λ = 460 nm. Inhibition tests of human HDAC1 and 6 were conducted using ZMAL (Cbz-(Ac)Lys-AMC) as substrate and trypsin as a developer. […] Trichostatin A (2 µM) was used in both assays to stop the reaction. Fluorescence was measured similarly as mentioned above. IC50 values were determined with OriginPro (version 9.0.0, Northampton, MA, USA). IC50 Values in Table 1 are given as mean ± S.E.

hsHDAC1 = biological target: T3, hsHDAC1 (Homo sapiens, UniProt Q13547); experiment: hsHDAC1 in vitro inhibition assay; type: biochemical; details: mean ± S.E.; ZMAL 10.5 µM, 90 min at 37 °C
T3 construct: purchased BPS Bioscience
T3 sequence (Q13547 whole entry): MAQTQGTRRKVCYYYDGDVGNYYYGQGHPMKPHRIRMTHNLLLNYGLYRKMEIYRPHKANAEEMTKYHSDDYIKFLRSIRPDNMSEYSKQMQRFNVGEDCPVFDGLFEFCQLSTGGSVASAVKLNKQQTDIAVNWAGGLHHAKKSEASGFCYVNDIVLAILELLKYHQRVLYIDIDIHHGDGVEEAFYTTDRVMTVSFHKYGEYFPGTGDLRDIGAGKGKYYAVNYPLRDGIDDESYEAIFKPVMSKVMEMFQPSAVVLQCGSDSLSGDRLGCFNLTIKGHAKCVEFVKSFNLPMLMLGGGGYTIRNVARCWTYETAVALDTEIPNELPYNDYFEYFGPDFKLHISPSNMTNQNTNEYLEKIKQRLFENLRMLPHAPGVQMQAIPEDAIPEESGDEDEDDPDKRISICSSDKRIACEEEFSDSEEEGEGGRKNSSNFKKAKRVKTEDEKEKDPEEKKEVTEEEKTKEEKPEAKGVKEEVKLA
Method: as §1

hsHDAC6 = biological target: T4, hsHDAC6 (Homo sapiens, UniProt Q9UBN7); experiment: hsHDAC6 in vitro inhibition assay; type: biochemical; details: for IC50: mean ± S.E., ZMAL 10.5 µM, 90 min at 37 °C
T4 construct: purchased BPS Bioscience
T4 sequence (Q9UBN7 1-1215): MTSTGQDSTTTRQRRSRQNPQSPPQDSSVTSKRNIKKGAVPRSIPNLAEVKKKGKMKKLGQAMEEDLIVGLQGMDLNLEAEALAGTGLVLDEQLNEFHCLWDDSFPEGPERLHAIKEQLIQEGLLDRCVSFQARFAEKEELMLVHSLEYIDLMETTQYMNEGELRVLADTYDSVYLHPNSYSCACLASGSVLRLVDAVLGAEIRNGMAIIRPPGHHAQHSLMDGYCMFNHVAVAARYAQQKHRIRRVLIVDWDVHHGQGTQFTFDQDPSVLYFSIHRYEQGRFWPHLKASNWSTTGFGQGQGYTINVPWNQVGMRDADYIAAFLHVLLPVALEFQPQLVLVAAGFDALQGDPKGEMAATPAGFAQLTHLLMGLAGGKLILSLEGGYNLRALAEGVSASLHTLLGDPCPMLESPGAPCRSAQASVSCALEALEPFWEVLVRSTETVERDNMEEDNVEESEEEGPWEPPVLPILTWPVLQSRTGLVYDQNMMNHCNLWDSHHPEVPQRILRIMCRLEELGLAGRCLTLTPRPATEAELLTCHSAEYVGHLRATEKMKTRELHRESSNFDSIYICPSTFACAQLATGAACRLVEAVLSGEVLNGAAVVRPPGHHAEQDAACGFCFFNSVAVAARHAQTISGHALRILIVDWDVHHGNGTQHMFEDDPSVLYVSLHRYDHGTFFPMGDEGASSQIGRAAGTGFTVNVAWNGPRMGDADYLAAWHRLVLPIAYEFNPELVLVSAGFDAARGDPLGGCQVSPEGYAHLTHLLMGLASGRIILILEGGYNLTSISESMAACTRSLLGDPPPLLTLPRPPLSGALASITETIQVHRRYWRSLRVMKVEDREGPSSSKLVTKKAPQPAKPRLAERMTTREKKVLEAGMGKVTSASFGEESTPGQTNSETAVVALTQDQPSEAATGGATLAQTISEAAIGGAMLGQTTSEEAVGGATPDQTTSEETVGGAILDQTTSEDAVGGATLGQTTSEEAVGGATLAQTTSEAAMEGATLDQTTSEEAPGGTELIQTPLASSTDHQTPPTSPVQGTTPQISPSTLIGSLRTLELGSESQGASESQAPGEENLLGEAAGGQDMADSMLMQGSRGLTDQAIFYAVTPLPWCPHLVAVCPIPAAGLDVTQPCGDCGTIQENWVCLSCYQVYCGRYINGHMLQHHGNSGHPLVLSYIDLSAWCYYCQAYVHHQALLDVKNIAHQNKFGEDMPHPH
Method: as §1

S. mansoni schistosomula [1] = experiment: Apoptosis induction in schistosomula (TUNEL); type: cell-based, Schistosoma mansoni; details: 100 µM, after 3 days
Method: The compound J1036 induced dose-dependent apoptosis in the infective larval stage (schistosomula) of S. mansoni, affecting 67% of the larvae after 3 days at a dose of 100 µM (Figure 4), whereas a polar hydroxamate derivative (J1038) identified by a previous virtual screening was ineffective in the same assay (data not shown here). […]. Although we cannot directly correlate the inhibitory activity on smHDAC8 with the lethal effect of J1036 on schistosomula, the high level of expression of this class I HDAC [21] in the parasite, and its validation as a stand-alone target by transcript knockdown, mean that its inhibition is sufficient to induce the effects observed.
Figure 4 J1036 induces apoptosis in S. mansoni schistosomula in vitro. (A) Dose-dependent induction of apoptosis determined by dUTP nick end labeling (TUNEL) shown as the percentage of parasites positively labeled; (B) TUNEL staining of schistosomula treated with 100 µM J1036 for 3 days. Parasites were counterstained using 4′,6-Diamidino-2-Phenylindole (DAPI).
The capacity of compounds J1036 and J1038 to induce apoptosis in S. mansoni schistosomula was measured using dUTP nick end labelling (TUNEL) and the In Situ Cell Death Detection Kit TMR (Roche Applied Science, Penzberg, Germany) exactly as previously described.

S. mansoni schistosomula [2] = system: S. mansoni schistosomula; design: method as in PMID 24086136; details: at 100 µM; cited from earlier work

IC50 (smHDAC8) [µM] | IC50 (hsHDAC8) [µM] | IC50 (hsHDAC1) [µM] | IC50 (hsHDAC6) [µM] | inhibitory activity against HDAC6 (in words) (hsHDAC6) | inhibition at 25 µM (smHDAC8; at 25 µM) [%] | SMILES | apoptosis, percentage of larvae affected (TUNEL positive) (S. mansoni schistosomula [1]) [%] | apoptosis, percentage of larvae affected (S. mansoni schistosomula [2]) [%]
4.4 ± 0.17 | 0.49 ± 0.18 | 6.76 ± 0.97 | 5.02 ± 0.31 | – | – | CCCCCC(=O)N(O)C1CC(=O)N(c2ccc(Cl)cc2)C1=O (stereo not shown) [J1036] | 67 | –
13.2 ± 1.85 | 2.62 ± 0.19 | 42.1 ± 2.2 | 6.2 ± 0.34 | – | – | CCCCC(=O)N(O)C1CC(=O)N(c2ccccc2)C1=O (stereo not shown) [J1057] | – | –
20.3 ± 2.78 | 3.99 ± 0.74 | 26 ± 2.4 | 6.2 ± 0.41 | – | – | CCCCCC(=O)N(O)C1CC(=O)N(c2ccccc2)C1=O (stereo not shown) [J1058] | – | –
11.5 ± 0.91 | 1.8 ± 0.24 | 5 ± 0.42 | 0.86 ± 0.12 | submicromolar | – | CCCCCCC(=O)N(O)C1CC(=O)N(c2ccccc2)C1=O (stereo not shown) [J1060] | – | –
5.5 ± 0.7 | 7.69 ± 3.3 | 3.98 ± 0.45 | 2.65 ± 0.29 | – | – | CCCCCCC(=O)N(O)C1CC(=O)N(c2ccc(Cl)cc2)C1=O (stereo not shown) [J1061] | – | –
5.9 ± 1.6 | 7.72 ± 4.42 | 1.42 ± 0.13 | 0.77 ± 0.09 | submicromolar | – | CCCCCCC(=O)N(O)C1CC(=O)N(c2ccc(Br)cc2)C1=O (stereo not shown) [J1063] | – | –
– | – | – | – | – | 13 | CCCCCCC(=O)N(O)C1CC(=O)N(c2cccc(Cl)c2C)C1=O (stereo not shown) [J1066] | – | –

More lines, now with the values behind:

SMILES | IC50 (smHDAC8) [µM] | IC50 (hsHDAC8) [µM] | IC50 (hsHDAC1) [µM] | IC50 (hsHDAC6) [µM] | inhibitory activity against HDAC6 (in words) (hsHDAC6) | inhibition at 25 µM (smHDAC8; at 25 µM) [%] | apoptosis, percentage of larvae affected (TUNEL positive) (S. mansoni schistosomula [1]) [%] | apoptosis, percentage of larvae affected (S. mansoni schistosomula [2]) [%]
CCCCCCC(=O)N(O)C1CC(=O)N(c2ccc(F)cc2)C1=O (stereo not shown) [J1064] | 7.79 ± 0.28 | 2.08 ± 0.34 | 4.3 ± 0.46 | 0.6 ± 0.12 | submicromolar | – | – | –
CCCCCCC(=O)N(O)C1CC(=O)N(c2ccc(C)cc2)C1=O (stereo not shown) [J1065] | 20.2 ± 2.7 | 3.96 ± 0.6 | 8.4 ± 0.28 | 1.57 ± 0.37 | – | – | – | –
O=C(NO)c1sc2ccccc2c1Cl [J1075] | – | – | – | – | – | – | – | 54
O=C(CCCCCCC(=O)Nc1ccccc1)NO [SAHA] | – | – | – | – | – | – | – | 43
COc1ccc(C(=O)NO)cc1NC(=O)c1ccc(-c2ccccc2)cc1 [TH65, reference compound] | 0.075 ± 0.025 | 0.026 ± 0.017 | 6.3 ± 2.1 | 0.39 ± 0.002 | – | – | – | –
